Structures are written as SMILES. Calls of active or inactive are those of the source. How the calls were made is not given here.

The target of the assay is Peptidyl-prolyl cis-trans isomerase FKBP1A (Homo sapiens) (UniProt P62942). Nature of the assay: FKBP12 binders, biophysical, NMR detection (AID 608). Conditions: NMR binding, purified FKBP12.
Chain of Peptidyl-prolyl cis-trans isomerase FKBP1A (Homo sapiens) (P62942 whole entry, looked up): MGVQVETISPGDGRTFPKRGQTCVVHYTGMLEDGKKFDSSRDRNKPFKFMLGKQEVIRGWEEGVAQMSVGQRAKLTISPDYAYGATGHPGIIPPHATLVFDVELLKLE
For the compound `COC(CC(=O)O)c1nc2ccccc2s1` (stereo not given), the Kd was > 4 mM (inactive).

Turning to `C=C(C)[C@H]1COc2cc3oc(=O)ccc3cc2O1`, the Kd is > 4 mM (inactive).

`CSc1ccccc1NC(=O)c1cnccn1`: the Kd was > 4 mM (inactive).

Take `CNC(=O)c1cc2cccc(OC)c2oc1=O`: the Kd was > 4 mM (inactive).

Turning to `Cc1[nH]c2ccccc2c1Cc1n[nH]c(=S)n1C`, the Kd was > 4 mM (inactive).

Turning to `c1ccc(-c2n[nH]c(-c3ccccn3)n2)nc1`, the Kd is > 4 mM (inactive).

As to `COc1ccc2cc3[n+](cc2c1OC)CCc1cc2c(cc1-3)OCO2`, the Kd was > 4 mM (inactive).

Consider `c1ccc(Cc2nn3c(-c4ccncc4)nnc3s2)cc1`, for which the Kd is > 4 mM (inactive).

In the case of `Nc1ccc(S(=O)(=O)Nc2ccc(F)cc2F)cc1`, the Kd was > 4 mM (inactive).

In the case of `Cc1cc(C(=O)N2CCN(c3ccccn3)CC2)c(C)o1`, the Kd was > 4 mM (inactive).

Consider `O=C(O)CCN1CCOCC1`, for which the Kd is > 4 mM (inactive).

Consider `Nc1ccc2c(C(F)(F)F)cc(=O)oc2c1`, for which the Kd was > 4 mM (inactive).

Take `CCN1CCc2c(sc(N)c2C#N)C1`: the Kd is > 4 mM (inactive).

Turning to `O=C(O)c1cccnc1N1CCCC1`, the Kd is > 4 mM (inactive).

On to `CC(=O)Oc1ccccc1N1C(=O)C=CC1=O`, for which the Kd was > 4 mM (inactive).

Turning to `COc1ccc(-c2cc(=O)c3c(OC(C)=O)cc(OC(C)=O)cc3o2)cc1`, the Kd was > 4 mM (inactive).

With `CC(=O)Nc1ccccc1-c1ccccc1NC(C)=O`, the Kd was > 4 mM (inactive).

`COC(=O)C[C@H]1C(C)(C)C(=O)[C@@H]2CC3=C(CC[C@]4(C)C3=CC(=O)O[C@H]4c3ccoc3)C1(C)C2=O`: the Kd is > 4 mM (inactive).

On to `O=C(O)c1ccc(-c2cnco2)cc1`, for which the Kd is > 4 mM (inactive).

As to `CCOC(=O)Cn1cnc2sc3c(c2c1=O)CCC3`, the Kd was > 4 mM (inactive).

Take `COc1cc2c(cc1OC)Cc1cc(OC)c(OC)cc1Cc1cc(OC)c(OC)cc1C2`: the Kd is > 4 mM (inactive).

As for `O=C(O)Cn1cnc2ccccc2c1=O`, the Kd was > 4 mM (inactive).

`O=C(NN1CCOCC1)c1cccs1`: the Kd was > 4 mM (inactive).

As for `COc1ccc(-c2ccc(=O)n(CC(N)=O)n2)cc1`, the Kd is > 4 mM (inactive).

For `Cc1ccc2[nH]cc(CCN)c2c1`, the Kd was > 4 mM (inactive).

As to `Cc1cc(NC(=O)c2ccccc2C(=O)O)no1`, the Kd is > 4 mM (inactive).

With `COc1ccc(-c2cc(=O)c3c(O)cc(O)c(-c4cc(-c5cc(=O)c6c(O)cc(O)cc6o5)ccc4OC)c3o2)cc1`, the Kd is > 4 mM (inactive).

In the case of `CNC[C@@H](O)c1ccc(O)c(O)c1`, the Kd is > 4 mM (inactive).

Regarding `COc1cc(OC)c(OC)cc1C=O`, the Kd is > 4 mM (inactive).

In the case of `c1ccc(CSc2ncccn2)cc1`, the Kd was > 4 mM (inactive).

Take `O=c1[nH]cnc2nc[nH]c12`: the Kd was > 4 mM (inactive).

In the case of `CC(=O)Nc1ccc2c(c1)CCCC2=O`, the Kd is > 4 mM (inactive).

Consider `CN(C)CCNC(CC(=O)Nc1ccccc1)C(=O)O` (stereo not given), for which the Kd is > 4 mM (inactive).

With `C=C1CCC(=O)C(C)CCC2C1CC2(C)C` (stereo not given), the Kd was > 4 mM (inactive).

Turning to `Cn1c(C(=O)O)ccc1S(N)(=O)=O`, the Kd was > 4 mM (inactive).

Regarding `O=C(Nc1cccc(Cl)c1Cl)c1ccccc1OCC(=O)N1CCOCC1`, the Kd is > 4 mM (inactive).

Regarding `COc1cc2c(cc1OC)[C@@]13CCN4CC5=CCOC6CC(=O)N2C1[C@H]6[C@H]5C[C@H]43` (stereo not given in full), the Kd was > 4 mM (inactive).

`Cc1oc(-c2ccccc2)cc1C(N)=O`: the Kd was > 4 mM (inactive).

As to `CN1CCC(NC(=O)c2ccccc2[N+](=O)[O-])CC1`, the Kd is > 4 mM (inactive).

As to `O=C(O)C1COc2ccccc2C1` (stereo not given), the Kd was > 4 mM (inactive).

Take `O=C(O[C@@H]1Cc2c(O)cc(O)cc2O[C@@H]1c1ccc(O)c(O)c1)c1cc(O)c(O)c(O)c1`: the Kd is > 4 mM (inactive).

On to `CC(=O)Nn1cc2c(=O)n(C)c(=O)n(C)c2c1`, for which the Kd was > 4 mM (inactive).

Regarding `COc1cc(C(=S)N2CCC(C(N)=O)CC2)ccc1O`, the Kd was > 4 mM (inactive).

On to `O=C(COc1ccc(S(=O)(=O)Nc2cccc(C(F)(F)F)c2)cc1)N1CCOCC1`, for which the Kd result is “inactive”.

For `CC1CN(C2=NCCN2)CC(C)O1` (stereo not given), the Kd was > 4 mM (inactive).

As to `COc1ccc2c(c1)OCC(Cc1ccc(OC)c(O)c1)C2=O` (stereo not given), the Kd is > 4 mM (inactive).

As to `Cc1cc(C(=O)Nc2ccc3c(c2)OCCO3)c(C)o1`, the Kd was > 4 mM (inactive).

For the compound `OCc1ccc2occc2c1`, the Kd was > 4 mM (inactive).

As for `CSc1nc(NC(C)C)nc(N2CCOCC2)n1`, the Kd was > 4 mM (inactive).

Take `Nc1ccc(Oc2ccccc2)nc1`: the Kd is > 4 mM (inactive).

Turning to `CC(C(N)=O)N1C(=O)c2ccccc2C1=O` (stereo not given), the Kd was > 4 mM (inactive).

For `COc1ccccc1-c1noc(-c2ccco2)n1`, the Kd was > 4 mM (inactive).

For the compound `OC/C=C/c1ccc(O)c(O)c1`, the Kd was > 4 mM (inactive).

With `CC(=O)Oc1cc(-c2coc3cc(OC(C)=O)c(OC(C)=O)c(OC(C)=O)c3c2=O)cc(OC(C)=O)c1OC(C)=O`, the Kd is > 4 mM (inactive).

As to `O=C1Cc2ccccc2N1c1ccccc1`, the Kd was > 4 mM (inactive).

Take `COc1ccc(-c2noc(-c3ccco3)n2)cc1OC`: the Kd is > 4 mM (inactive).

Take `O=S(=O)(Cc1ccccc1Cl)Nc1ccccn1`: the Kd was > 4 mM (inactive).

For `Cc1nn2c(=O)c(NC(=O)c3ccccc3)cnc2s1`, the Kd is > 4 mM (inactive).

As to `Cc1oc2nc3c(c(=O)[nH]c(=O)n3C)n2c1C`, the Kd is > 4 mM (inactive).

Turning to `C=CCc1cc(C(=O)N2CCCCC2)ccc1O`, the Kd was > 4 mM (inactive).

Consider `CN1CCCn2c1nc1c2c(=O)[nH]c(=O)n1C`, for which the Kd is > 4 mM (inactive).

On to `COc1ccc(C(=O)CC(=O)O)c2c1C=CC(C)(C)O2`, for which the Kd is > 4 mM (inactive).

For `O=C(CN1CCOCC1)Nc1nccs1`, the Kd is > 4 mM (inactive).

On to `NCCc1ccc(S(N)(=O)=O)cc1`, for which the Kd is > 4 mM (inactive).

Consider `CC1(C)Cc2nc3n[nH]c(N)c3cc2CO1`, for which the Kd was > 4 mM (inactive).

On to `OCc1ncoc1-c1ccccc1`, for which the Kd was > 4 mM (inactive).

For the compound `CC(=O)c1c(C)n([O-])c2ccccc2[n+]1=O`, the Kd was > 4 mM (inactive).

Take `O=c1[nH]cc(NCc2ccccc2)c(=O)[nH]1`: the Kd was > 4 mM (inactive).

Turning to `Cn1cnc2c1c(=O)[nH]c(=O)n2C`, the Kd was > 4 mM (inactive).

Regarding `COc1ccc(C(=O)NCC(=O)O)cc1`, the Kd was > 4 mM (inactive).

Take `CS(=O)(=O)NC1CCN(Cc2ccccc2)CC1`: the Kd is > 4 mM (inactive).

`Cc1occc(=O)c1O`: the Kd is > 4 mM (inactive).

Consider `O=C(NCN1CCOCC1)c1cccnc1`, for which the Kd was > 4 mM (inactive).

`O=C(O)c1csc(-c2cccs2)n1`: the Kd was > 4 mM (inactive).

For the compound `Cc1ccc(-c2nc(-c3cccnc3)no2)cc1`, the Kd is > 4 mM (inactive).

(Values after PubChem BioAssay AID608 (Sanford-Burnham Center for Chemical Genomics, 2007).)
